Experimental data reported in patent US20040137582A1, “Methods for manufacturing polysaccharide derivatives” (priority 2002, published 2004).

Experiments:
human skin fibroblasts [1] = assay: Extraction assay, mitochondrial metabolic activity (MTT); details: 24 h
Description: Cell culture. Primary human skin fibroblasts were grown in DMEM complete medium, at 37° C. in a fully humidified air containing 5% CO2 (IR auto Flow). The cells were fed every 2 to 3 days. When cells reached confluence, the culture medium was discarded and the cells washed with 5 mL of 10 mM phosphate buffered saline (PBS) pH 7.4 (Gibco). The cells were then detached with 2 mL of 0.05% (w/v) trypsin (1:250, from porcine pancreas (Sigma)) solution (PBS supplemented with 0.1% and 0.25% of α-D(+) glucose and EDTA, respectively) for 5 min at 37° C., and 3 mL of DMEM complete medium was added to inactivate the trypsin after cell detachment. The cells were centrifuged (10 min, 2500 rpm) and resuspended in culture medium before use. Cultures between the 3rd and 7th passages were used in the entire work.
All solutions were prepared on the day of application.
Extraction assay. The extraction assay was performed in two sets of hydrogels. […] In the second set the hydrogels obtained after the polymerization reaction were immersed in 10 mL of 10 mM citrate-phosphate pH 7.0 and immediately autoclaved. Extracts were obtained by immersing autoclaved hydrogels in DMEM (without phenol red) culture medium supplemented with 1% of fungizone and 0.5% of gentamicin, at 37° C., for 5 days with agitation (120 rpm). The ratio between the surface area of the material and the volume of extraction medium was 3 cm^2/mL. Following incubation the medium containing the extract was collected, filtered (0.22 μm; to eliminate the possible presence of solid particles of the material) and supplemented with 10% of serum. Human skin fibroblasts were plated in 96-well plates (TPP, Switzerland) and grown to subconfluency. The culture medium was removed and replaced with the extract media for 24 h at 37° C. Phenol (64 g/L, BDH) which is considered cytotoxic^17, was used as a positive control. Culture medium without extracts, incubated as described above, was used as a negative control. Following incubation the extracts were discarded and the mitochondrial metabolic activity of the cells was measured with the MTT assay.
Mitochondrial metabolic activity assay. For 96-well plates, the cell layers were rinsed with PBS (110 μL) and 110 μL of MTT (0.45 mg/mL in DMEM complete medium w/o phenol red) was added to each well. For 6-well plates, after PBS washing (1 mL), 2.5 mL of MTT solution was added. After 3 h incubation at 37° C., the MTT solution was removed and the insoluble formazan crystals formed in the bottom of the wells were dissolved in 100 μL or 1 mL of DMSO, for 96 and 6-well plates respectively. The absorbance was measured at 540 nm using a plate reader (STL Spectra III, Austria).

human skin fibroblasts [2] = assay: Cell proliferation inhibition index (CPII) assay: direct contact assay; details: 72 h
Description: Cell proliferation inhibition index (CPII) assay: direct contact assay. […] Since each well has a surface area of 0.31 cm^2, the final seeding density was ca. 5×10^3 cells/cm^2. After 4 h (the cells were adherent to the well bottom), the culture medium was discarded and 200 μL of each test solution was added to each well. For the control culture, the medium was refreshed. Seventy-two hours after the addition of test solutions, the extracts were discarded and the cell layer was washed with PBS to remove remaining materials and loose cells. The metabolic activity of the cells was then measured with the MTT test (see below). The CPII was calculated using eq. 6: [formula]
To evaluate the CPII for dexT70-VA hydrogels (extracted for 3 days in water at 25° C. and then sterilized by autoclave), 3 mL of a fibroblast suspension containing 1.5×10^4 cells/mL was plated into each well of a 6-well plate, to yield a final density of 5×10^3 cells/cm^2. After 4 h, the culture medium was refreshed (3 mL) and the hydrogels were added to the wells, in direct contact with cells (FIG. 1A). For the control culture, the culture medium was refreshed. After 72 h of incubation, the metabolic activity of the cells was assessed as previously described and the CPII calculated according to eq.6.
Mitochondrial metabolic activity assay. […] The absorbance was measured at 540 nm using a plate reader (STL Spectra III, Austria).

Row | Compound | increase in the MMAF (human skin fibroblasts [1]; solution 10 mg/mL) | effect on MMAF (human skin fibroblasts [1]; solution 20-100 mg/mL) | effect on MMAF (human skin fibroblasts [1]; concentrations above 2.5 μL/mL) | CPII (human skin fibroblasts [2]; all concentrations) | CPII (human skin fibroblasts [2]; above 2.5 μL/mL)
1 | Dextran [reference compound] | ca. 20% | not significant | – | – | –
2 | N.N.O=S(=O)(O)OOS(=O)(=O)O [APS, ammonium persulfate] | – | – | significant (P<0.001) decrease in MMAF | ca. 90% | –
3 | CN(C)CCN(C)C [TEMED, N,N,N′,N′-tetramethylenediamine] | – | – | significant (P<0.001) decrease in MMAF | – | the same phenomenon was observed
